Test results from article PMC7743948, “D-LL-31 enhances biofilm-eradicating effect of currently used antibiotics for chronic rhinosinusitis and its immunomodulatory activity on human lung epithelial cells” (PLoS ONE, 2020).
Square brackets hold non-standard residues; d marks the D form. Peptide text beside a SMILES is read from it.

Tests used:
[1] = tested on: all tested isolates (K. pneumoniae, S. epidermidis, P. aeruginosa, P. aeruginosa ATCC 27853); assay: Killing of planktonic bacteria (CFU count), statements for all tested isolates; type: cell-based; details: 1 μM, within 1 h, 5 x 10^5 CFU/ml, all tested strains
Method: A bacterial suspension without peptide served as a control. The samples were then serially diluted and cultivated on NA (Himedia®) and incubated for 24 h to allow colony counting. […] Each experiment was performed independently three times in duplicate.

[2] = tested on: K. pneumoniae biofilm; assay: microbe, parasite or virus in culture; details: biofilm, 24 h
Method: (§1) The effects of both conventional antibiotics and AMPs against bacteria under biofilm-stimulating condition were determined using a transferable solid phase (TSP) pin lid, which resembles the ‘Calgary’ biofilm device as previously described with some modifications. Each strain (10^7 CFU/ml) was added to sterile 96-well plates (Nunclon™), then covered by a TSP pin lid (NUNC™, Roskilde, Denmark), and further incubated at 37 °C for 24 h. […] Additionally, the effect of TOB (2–836 μM or 1–391 μg/ml) against P. aeruginosa biofilm was also investigated. Then the plates were statically incubated at 37 °C for 24 h. A well free of antimicrobial agent was used as a control. After 24 h, bacterial survival was determined using the plate count technique on NA (Himedia®). The percentage killing of each antimicrobial agent was calculated using the formula [1 − (CFU sample/CFU control)] × 100% [15, 19]. […] Each experiment was performed independently three times in duplicate.

[3] = tested on: P. aeruginosa biofilm; assay: microbe, parasite or virus in culture; details: biofilm, 24 h
Method: as §1

[4] = tested on: S. epidermidis biofilm; assay: microbe, parasite or virus in culture
Method: as §1

[5] = tested on: all bacteria in biofilm; assay: Killing of bacteria grown as biofilm (TSP pin lid), statements for all bacteria; type: cell-based
Method: as §1

[6] = tested on: K. pneumoniae biofilm; assay: Checkerboard synergy of D-LL-31 with antibiotics on biofilm; type: cell-based, Klebsiella pneumoniae; details: D-LL-31 combined with AMX; IC50 alone compared with concentration of combination
Method: (§2) Bacterial viability in each interaction was determined using the plate count technique. The fractional inhibitory concentration index (FICI) values were calculated and interpreted in terms of synergism/antagonism as previously described. Each experiment was performed independently three times in duplicate.

[7] = tested on: S. epidermidis biofilm; assay: as above; type: cell-based, Staphylococcus epidermidis; details: D-LL-31 combined with AMX; IC50 alone compared with concentration of combination
Method: as §2

[8] = tested on: P. aeruginosa biofilm; assay: as above; type: cell-based, Pseudomonas aeruginosa; details: IC50 alone compared with concentration of combination
Method: as §2

[9] = tested on: P. aeruginosa biofilm matrix; assay: Biofilm matrix reduction (AAA-model, CLSM, COMSTAT biomass); type: cell-based, Pseudomonas aeruginosa; details: combination of D-LL-31 (0.5 μM) and TOB (0.2 μM), 24 h
Method: (§3) Briefly, 1.5 ml of each overnight culture (10^8 CFU/ml) was added to a 24-well tissue culture plate (Nunclon™). The plate was covered with a sterile stainless-steel lid containing glass coverslips and aerobically incubated at 37°C for 24 h. […] All tested conditions were incubated at 37°C for 24 h. A well free of antimicrobial agent was used as a control. Following incubation, biofilms were fixed with 2.5% glutaraldehyde (Sigma-Aldrich) at 25°C for 3 h. The fixed bacterial biofilms on glass coverslips were stained with 50 μg/ml Alexa Fluor® 488 (Invitrogen, Carlsbad, CA) for 30 min. This stain reacts with exopolysaccharide matrixes of the biofilm. The glass coverslips were then mounted with 80% glycerol and the stained cells were photographed using a confocal laser-scanning microscope (CLSM) (TCS SP8-Leica Microsystems, Wetzlar, Germany). […] Each experiment was performed independently three times in duplicate.

[10] = tested on: biofilm matrix of all tested strains; assay: Biofilm matrix reduction (AAA-model, CLSM, COMSTAT biomass), statements for all tested strains; type: cell-based
Method: as §3

[11] = tested on: A549 human lung epithelial cells; assay: Cytokine antibody array of culture supernatant; type: cell-based; details: 10 μM, 24 h
Method: The immunomodulatory effect of D-LL-31 on A549 human lung epithelial cells was investigated using cytokine antibody arrays. […] Cells in medium without peptide were used as a control. After incubation, the secreted cytokines in culture supernatant were detected using a human angiogenesis antibody array kit (AAH-ANG-1000-4, Norcross, GA) according to the manufacturer's instructions. […] Each experiment was performed independently two times in duplicate.

[12] = tested on: A549 cells (human lung epithelial cells); details: 25 µM
Method: Briefly, A549 cells were maintained in RPMI-1640 (HyClone™, Marlborough, MA) with 10% fetal bovine serum (FBS) (HyClone™) and sub-cultured by standard methods using trypsin/EDTA (0.25% trypsin, 0.1% EDTA) (Corning™, Corning, NY). A standard curve of A549 cells (100–50000 cells/well) was constructed as previously described with some modification [43]. For MTT assay, cells were plated at a density of 2.5×10^4 cells/well in 96-well plates and grown overnight. […] Prepared A549 cells were then exposed to the diluted peptides for 24 h at 37°C, 5% CO2 atmosphere. Negative controls received either culture medium or PPB. Cells with 2% dimethyl sulfoxide (DMSO) (Sigma-Aldrich) were used as positive control. Cytotoxicity was assessed using MTT (0.5 mg/ml) according to the manufacturer's instructions (Sigma-Aldrich). Absorbance was measured at a wavelength of 570 nm with background subtraction at 630–690 nm. Then absorbance values from the MTT were converted to cells/well using a standard curve. Cell viabilities were calculated using the formula; [mean of cells in treated well]/[mean of cells in control well] × 100%. Each experiment was performed independently three times in triplicate.

[13] = tested on: hRBCs (human red blood cells); details: cited from earlier work

SMILES: CC[C@@H](C)[C@@H](NC(=O)[C@@H](CCCCN)NC(=O)[C@@H](CCC(=O)O)NC(=O)[C@@H](CCCCN)NC(=O)[C@@H](CO)NC(=O)[C@@H](CCCCN)NC(=O)[C@@H](CCCNC(=N)N)NC(=O)[C@@H](Cc1ccccc1)NC(=O)[C@@H](Cc1ccccc1)NC(=O)[C@@H](CC(=O)O)NC(=O)CNC(=O)[C@@H](CC(C)C)NC(=O)[C@H](N)CC(C)C)C(=O)NCC(=O)N[C@H](CCCCN)C(=O)N[C@H](CCC(=O)O)C(=O)N[C@H](Cc1ccccc1)C(=O)N[C@H](CCCCN)C(=O)N[C@H](CCCNC(=N)N)C(=O)N[C@@H](C(=O)N[C@@H](C(=O)N[C@H](CCC(N)=O)C(=O)N[C@H](CCCNC(=N)N)C(=O)N[C@@H](C(=O)N[C@H](CCCCN)C(=O)N[C@H](CC(=O)O)C(=O)N[C@H](Cc1ccccc1)C(=O)N[C@H](CC(C)C)C(=O)N[C@H](CCCNC(=N)N)C(=O)N[C@H](CC(N)=O)C(=O)N[C@H](CC(C)C)C(=O)O)[C@H](C)CC)C(C)C)[C@H](C)CC [D-LL-31] (H-[dL][dL]G[dD][dF][dF][dR][dK][dS][dK][dE][dK][dI]G[dK][dE][dF][dK][dR][dI][dV][dQ][dR][dI][dK][dD][dF][dL][dR][dN][dL]-OH; N-terminus and C-terminus assumed)
- killing of bacterial cells, in words [1]: completely killed
- IC50 [2]: 600 nM
- IC50 [3]: 4000 nM
- killing activity compared with all tested peptides ([4]; 1.56–25 μM, P < 0.05, one-way ANOVA): significantly higher
- IC50 ([4]; biofilm, 24 h): 500 nM
- IC50 ([5]; 24 h biofilm, 24 h, read-out: IC50 values, range over all bacteria in biofilm): 500 to 4000 nM
- IC70 values, range ([5]; D-LL-31 alone and in combination with antibiotics, biofilm-stimulating condition): 800 to 8700 nM
- IC90 ([5]; bacteria grown as biofilm, read-out: IC90 values, range): 1000 to 25000 nM
- Fold decrease of IC50 values [6]: 8 fold
- Fold decrease of IC50 values [7]: 16 fold
- Fold decrease of IC50 values ([8]; D-LL-31 combined with AMX): 16 fold
- Fold decrease of IC50 values ([8]; D-LL-31 combined with TOB): 8 fold
- biofilm matrix relative to controls [9]: statistically significant reduction
- biofilm biomass relative to controls ([10]; D-LL-31 in combination with antibiotics, 24 h, P < 0.001): Significant decreases
- biofilm biomass relative to controls ([10]; D-LL-31 treatment alone at IC50, 24 h, P < 0.01): Significant decreases
- biofilm matrix relative to controls ([10]; combination of D-LL-31 with AMX, 24 h, all tested strains): distinct decrease
- expression of IFN-γ [11]: not found
- expression of IL-6 [11]: did not induce
- levels of IL-4, IL-8, TNF-α and GRO-a, b and g [11]: no significant change
- ENA-78 secretion relative to controls ([11]; P < 0.05): significantly secreted
- TIMP-2 in culture supernatant ([11]; P < 0.05): significantly elevated
- viable cells [12]: more than 80%
- hemolytic activity [13]: less than 1%
